Results published in publication PMC5613062 (Investigational New Drugs, 2017).
Like-named read-outs stand apart in the source and are kept apart here. One block for each compound: values may come before it.

How the values were obtained:
[1] = ref Study ARRY-0401, cited from earlier work
[2] = set-up: method as in earlier work; conditions: daily oral administration in SBE-CD for 1 month, rats; ref IB; cited from earlier work
tumor pERK = system: tumor pERK; set-up: method as in Study ARRY-0401; conditions: 100 mg BD, Day 15 compared with pre-dose; 90% CI 50% to 93%; ref Study ARRY-0401; cited from earlier work
[3] = set-up: method as in earlier work; conditions: ref IB; cited from earlier work
[4] = set-up: method as in earlier work; conditions: cynomolgus monkeys dosed for up to one month; ref IB; cited from earlier work
Ki67 = system: Ki67; set-up: method as in Study ARRY-0401; conditions: 100 mg BD; ref Study ARRY-0401; cited from earlier work
[5] = Pharmacokinetics alone and in combination, selumetinib + temsirolimus arm; assay type: in vivo, human; conditions: for AUC(0–8) / AUC(0–12) / Cmax / AUC(0-t): geometric mean (% CV); for tmax: median (range); for PK parameters when administered alone and in combination: selumetinib + temsirolimus arm; for AUC(0-t): read-out: AUC(0–8)
CYP1A2 = system: CYP1A2; set-up: method as in earlier work; conditions: weak inhibition; ref IB; cited from earlier work
ERK phosphorylation = system: ERK phosphorylation; set-up: method as in earlier work; conditions: cultured cells; more active than parent; ref IB; cited from earlier work
[6] = Pharmacokinetics alone and in combination, selumetinib + erlotinib arm; conditions: for tmax: median (range)
cell viability = system: cell viability; set-up: method as in earlier work; conditions: more active than parent; ref IB; cited from earlier work
[7] = set-up: method as in LoRusso et al 2005; conditions: Phase I-II trial; ref LoRusso et al 2005; cited from earlier work
[8] = set-up: method as in product label; conditions: ref product label; cited from earlier work
[9] = ref product label, cited from earlier work
[10] = dosed alone, selumetinib 50 mg cohort (N = 25), temsirolimus 25 mg IV
[11] = dosed alone, selumetinib 75 mg cohort (N = 6), temsirolimus 25 mg IV
[12] = dosed in combination, selumetinib 50 mg BID (N = 22) + temsirolimus 25 mg IV
[13] = dosed in combination, selumetinib 75 mg BID (N = 5) + temsirolimus 25 mg IV
[14] = geometric mean (% CV), dosed alone, selumetinib 50 mg cohort (N = 14), erlotinib 100 mg QD
[15] = geometric mean (% CV), dosed alone, selumetinib 75 mg cohort (N = 6), erlotinib 100 mg QD
[16] = geometric mean (% CV), dosed in combination, selumetinib 50 mg BID (N = 12) + erlotinib 100 mg QD
[17] = geometric mean (% CV), dosed in combination, selumetinib 75 mg BID (N = 6) + erlotinib 100 mg QD
[18] = geometric mean, QD cohorts, dosed alone, selumetinib 50 mg cohort (N = 7), erlotinib 100 mg QD
[19] = geometric mean, QD cohorts, dosed alone, selumetinib 100 mg cohort (N = 6), erlotinib 100 mg QD
[20] = geometric mean, QD cohorts, dosed alone, selumetinib 150 mg cohort (N = 13), erlotinib 100 mg QD
[21] = geometric mean, QD cohorts, in combination, selumetinib 50 mg (N = 6) + erlotinib 100 mg QD
[22] = geometric mean, QD cohorts, in combination, selumetinib 100 mg (N = 6) + erlotinib 100 mg QD
[23] = geometric mean, QD cohorts, in combination, selumetinib 150 mg (N = 12) + erlotinib 100 mg QD

SMILES: Cn1cnc2c(F)c(Nc3ccc(Br)cc3Cl)c(C(=O)NOCCO)cc21 [AZD6244 free-base]
- patients with SD ([1]; RECIST, as of 30 September 2006): 17 patients
- best overall response ([1]; RECIST): stable disease (SD)
- patients with long term (≥5 months) SD ([1]; RECIST): 9 patients
- MTD ([1]; free-base mix and drink formulation): 100 mg BD
- tolerability [2]: well tolerated
- toxicity findings [2]: soft stools and gastrointestinal mucosal mineralization
- inhibition of tumor pERK, geometric mean (tumor pERK): 81%
- solubility [3]: limited solubility
- tissue mineralization [4]: not apparent
- patients with reduction in Ki67 (Ki67): 9/20
- patients with reduction in Ki67 ≥50% of pre-dose (Ki67): 5 patients

- AUC(0–8) [5, 10]: 124.3 (80.50) ng•h/mL
- AUC(0–12) [5, 10]: 168.2 (54.21) [23] ng•h/mL
- Cmax [5, 10]: 35.28 (109.00) ng/mL
- AUC(0–8) [5, 11]: 231.1 (68.07) ng•h/mL
- AUC(0–12) [5, 11]: 269.4 (62.60) ng•h/mL
- Cmax [5, 11]: 75.34 (88.64) ng/mL
- AUC(0–8) [5, 12]: 129.4 (59.96) ng•h/mL
- AUC(0–12) [5, 12]: 168.2 (57.86) [14] ng•h/mL
- Cmax [5, 12]: 38.51 (81.60) ng/mL
- AUC(0–8) [5, 13]: 167.8 (51.40) ng•h/mL
- AUC(0–12) [5, 13]: 190.5 (55.06) [4] ng•h/mL
- Cmax [5, 13]: 48.36 (65.63) ng/mL
- tmax [5, 10]: 1.5 (1.0–8.0) h
- tmax [5, 11]: 1.5 (1.0–4.0) h
- tmax [5, 12]: 2.0 (1.0–2.0) h
- tmax [5, 13]: 2.0 (1.0–2.0) h
- PK parameters when administered alone and in combination [5]: similar
- AUC(0–8) [6, 14]: 141.3 (41.79) [13] ng•h/mL
- AUC(0–12) [6, 14]: 173.4 (39.75) [12] ng•h/mL
- Cmax [6, 14]: 41.69 (60.64) ng/mL
- AUC(0–8) [6, 15]: 195.9 (36.04) ng•h/mL
- AUC(0–12) [6, 15]: 223.9 (34.90) ng•h/mL
- Cmax [6, 15]: 66.80 (75.74) ng/mL
- AUC(0–8) [6, 16]: 130.4 (39.09) ng•h/mL
- AUC(0–12) [6, 16]: 153.3 (39.37) ng•h/mL
- Cmax [6, 16]: 43.37 (47.62) ng/mL
- AUC(0–8) [6, 17]: 227.5 (57.77) ng•h/mL
- AUC(0–12) [6, 17]: 262.7 (53.29) ng•h/mL
- Cmax [6, 17]: 72.94 (91.01) ng/mL
- AUC(0–8) [6, 18]: 156 ng·h/mL
- AUC(0–12) [6, 18]: 181 ng·h/mL
- Cmax [6, 18]: 45.6 ng/mL
- AUC(0–8) [6, 19]: 347 ng·h/mL
- AUC(0–12) [6, 19]: 401 ng·h/mL
- Cmax [6, 19]: 109 ng/mL
- AUC(0–8) [6, 20]: 279 ng·h/mL
- AUC(0–12) [6, 20]: 331 ng·h/mL
- Cmax [6, 20]: 79.6 ng/mL
- AUC(0–8) [6, 21]: 149 ng·h/mL
- AUC(0–12) [6, 21]: 181 ng·h/mL
- Cmax [6, 21]: 44.5 ng/mL
- AUC(0–8) [6, 22]: 404 ng·h/mL
- AUC(0–12) [6, 22]: 454 ng·h/mL
- Cmax [6, 22]: 129 ng/mL
- AUC(0–8) [6, 23]: 286 ng·h/mL
- AUC(0–12) [6, 23]: 344 ng·h/mL
- Cmax [6, 23]: 68.3 ng/mL
- tmax ([6]; QD cohorts, dosed alone, selumetinib 50 mg cohort (N = 7), erlotinib 100 mg QD): 1.50 (1.00–4.00) h
- tmax ([6]; QD cohorts, dosed alone, selumetinib 100 mg cohort (N = 6), erlotinib 100 mg QD): 1.50 (1.50–4.00) h
- tmax ([6]; QD cohorts, dosed alone, selumetinib 150 mg cohort (N = 13), erlotinib 100 mg QD): 1.50 (1.00–8.00) h
- tmax ([6]; QD cohorts, in combination, selumetinib 50 mg (N = 6) + erlotinib 100 mg QD): 1.50 (1.50–8.00) h
- tmax ([6]; QD cohorts, in combination, selumetinib 100 mg (N = 6) + erlotinib 100 mg QD): 1.50 (1.00–2.00) h
- tmax ([6]; QD cohorts, in combination, selumetinib 150 mg (N = 12) + erlotinib 100 mg QD): 2.00 (1.00–4.00) h
- tmax ([6]; dosed alone, selumetinib 50 mg cohort (N = 14), erlotinib 100 mg QD): 1.5 (1.0–12.0) h
- tmax ([6]; dosed alone, selumetinib 75 mg cohort (N = 6), erlotinib 100 mg QD): 1.45 (1.0–2.0) h
- tmax ([6]; dosed in combination, selumetinib 50 mg BID (N = 12) + erlotinib 100 mg QD): 1.25 (1.0–4.0) h
- tmax ([6]; dosed in combination, selumetinib 75 mg BID (N = 6) + erlotinib 100 mg QD): 1.5 (1.0–2.0) h
- PK parameters when administered alone and in combination ([6]; selumetinib + erlotinib arm): similar
SMILES: O=C(NOCCO)c1cc2nc[nH]c2c(F)c1Nc1ccc(Br)cc1Cl [N-desmethyl selumetinib]
- plasma concentrations/exposure as % of AZD6244 concentrations/exposure ([1]; Part B of the study): ≤ 10%
- IC50 (CYP1A2): 18.9 µM
- activity relative to AZD6244 parent compound, inhibition of ERK phosphorylation (ERK phosphorylation): approximately 3 fold
- activity relative to AZD6244 parent compound, inhibition of cell viability (cell viability): approximately 5 fold

SMILES: O=C(NOC[C@H](O)CO)c1ccc(F)c(F)c1Nc1ccc(I)cc1F [PD-0325901]
- patients reporting rash [7]: 49%

- Cmax [5, 11]: 749.2 (24.61) [5] ng/mL
- AUC(0-t) ([5]; human, plasma, iv, dosed alone, selumetinib 50 mg cohort (N = 25), temsirolimus 25 mg IV): 1.58 µg·h/mL
- AUC(0–12) ([5]; human, plasma, iv, dosed alone, selumetinib 50 mg cohort (N = 25), temsirolimus 25 mg IV, read-out: AUC(0–12)): 1.88 µg·h/mL
- Cmax ([5]; human, plasma, iv, dosed alone, selumetinib 50 mg cohort (N = 25), temsirolimus 25 mg IV, read-out: Cmax): 0.669 µg/mL
- AUC(0-t) ([5]; human, plasma, iv, dosed alone, selumetinib 75 mg cohort (N = 6), temsirolimus 25 mg IV): 1.74 µg·h/mL
- AUC(0–12) ([5]; human, plasma, iv, dosed alone, selumetinib 75 mg cohort (N = 6), temsirolimus 25 mg IV, read-out: AUC(0–12)): 1.91 µg·h/mL
- AUC(0-t) ([5]; human, plasma, iv, dosed in combination, selumetinib 50 mg BID (N = 22) + temsirolimus 25 mg IV): 1.46 µg·h/mL
- AUC(0–12) ([5]; human, plasma, iv, dosed in combination, selumetinib 50 mg BID (N = 22) + temsirolimus 25 mg IV, read-out: AUC(0–12)): 1.61 µg·h/mL
- Cmax ([5]; human, plasma, iv, dosed in combination, selumetinib 50 mg BID (N = 22) + temsirolimus 25 mg IV, read-out: Cmax): 0.651 µg/mL
- AUC(0-t) ([5]; human, plasma, iv, dosed in combination, selumetinib 75 mg BID (N = 5) + temsirolimus 25 mg IV): 1.54 µg·h/mL
- AUC(0–12) ([5]; human, plasma, iv, dosed in combination, selumetinib 75 mg BID (N = 5) + temsirolimus 25 mg IV, read-out: AUC(0–12)): 1.74 µg·h/mL
- Cmax ([5]; human, plasma, iv, dosed in combination, selumetinib 75 mg BID (N = 5) + temsirolimus 25 mg IV, read-out: Cmax): 0.695 µg/mL
- tmax [5, 12]: 1.0 (0.5–1.5) h
- tmax [5, 13]: 0.5 (0.5–1.0) h
- PK parameters when administered alone and in combination [5]: similar
SMILES: CO[C@H]1C[C@@H]2CC[C@@H](C)[C@@](O)(O2)C(=O)C(=O)N2CCCC[C@H]2C(=O)O[C@H]([C@H](C)C[C@@H]2CC[C@@H](OC(=O)C(C)(CO)CO)[C@H](OC)C2)CC(=O)[C@H](C)/C=C(\C)[C@@H](O)[C@@H](OC)C(=O)[C@H](C)C[C@H](C)/C=C/C=C/C=C/1C [Temsirolimus]
- most common (incidence ≥30%) adverse reactions [8]: rash, asthenia, mucositis, nausea, edema, and anorexia

SMILES: CN(C)/N=N/c1[nH]cnc1C(N)=O [dacarbazine]
- incidence of hepatic toxicity with hepatic vein thrombosis and hepatocellular necrosis resulting in death ([9]; patients treated): approximately 0.01%
- patients affected by anorexia, nausea, and vomiting ([9]; with the initial few doses): Over 90%
